The results in this text go back to ChEMBL document CHEMBL4613255, “Tridiscorhabdin and Didiscorhabdin, the First Discorhabdin Oligomers Linked with a Direct C-N Bridge from the Sponge Latrunculia biformis Collected from the Deep Sea in Antarctica” (J Nat Prod, 2020).

The structures appear in SMILES notation.

Assay [1] relates to HCT-116. As to the kind of experiment: Cytotoxicity against human HCT116 cells assessed as reduction in cell viability after 24 hrs by fluorescence based assay. In kind it is functional. The conditions noted are these: HCT-116, 24 h.
Assay [2] has as its system HaCaT. As to the kind of experiment: Cytotoxicity against human HaCaT cells assessed as reduction in cell viability after 24 hrs by fluorescence based assay.

On to `O=C1C=C(S[C@@H]2[C@H]3C(=O)C=C4S[C@H]5C[C@@]42C2=C(N5)C(=O)c4[nH]cc5c4C2=[N+]3CC5)[C@@]2(C=CNC3=C2c2nccc4cn([C@H]5[C@H]6C(=O)C=C7S[C@H]8C[C@]75C5=C(N8)C(=O)c7[nH]cc8c7C5=[N+]6CC8)c(c24)C3=O)C=C1Br`, for which the figures for the IC50 in assay [1] and in assay [2] were 310 nM and 920 nM, respectively. Turning to `O=C1C2=C3C4=[N+](CCc5c[nH]c1c54)[C@@H]1C(=O)C=C4S[C@H](C[C@]43[C@H]1O)N2`, the IC50 in assay [1] is 940 nM.
